Assay results reported in patent US20240010620A1, “ARYLAZABICYCLO[2.1.1]HEXYLMETHANOLS DERIVATIVES AND MEDICAL USES THEREOF” (ATROGI AB, priority 2020, published 2024).

How the values were obtained:
L6-myotubes [1] = experiment: Glucose uptake in differentiated L6-myotubes (3H-2-deoxy-glucose); type: cell-based; conditions: agonist final concentration 1×10^−5, 3H-2-deoxy-glucose uptake
Experimental: L6-myoblasts were grown in Dulbecco's Modified Eagle's Medium (DMEM) containing 4,5 g/I glucose supplemented with 10% fetal bovine serum, 2 mM L-Glutamine, 50 U/ml penicillin, 50 μg/ml streptomycin and 10 mM HEPES. Cells were plated at 1×10^5 cells per ml in 24-well plates. After reaching 90% confluence the cells were grown in medium containing 2% FBS for 7 days where upon cells differentiated into myotubes. Differentiated L6-myotubes were serum-starved over night in medium containing 0.5% fatty-acid free BSA and stimulated with agonist, final concentration 1×10^−5. After 1 h 40 min cells were washed with warm, glucose free medium or PBS and another portion of agonist was added to glucose free medium. After 20 min the cells were exposed to 50 nM ^3H-2-deoxy-glucose for another 10 min before washed in ice cold glucose free medium or PBS and lysed in 0.2 M NaOH for 1 h in 60° C.

L6-myotubes [2] = experiment: Measurement of intracellular cAMP levels (alpha screen cAMP kit); type: cell-based; conditions: differentiated cells; agonist final concentration 1×10^−5, 15 min; 1 mM IBMX
Experimental: L6-myoblasts were grown in Dulbecco's Modified Eagle's Medium (DMEM) containing 4,5 g/I glucose supplemented with 10% fetal bovine serum, 2 mM L-Glutamine, 50 U/ml penicillin, 50 μg/ml streptomycin and 10 mM HEPES. Cells were plated at 1×10^5 cells per ml in 24-well plates. After reaching 90% confluence the cells were grown in medium containing 2% FBS for 7 days where upon cells differentiated into myotubes. Differentiated cells were serum-starved over night and stimulated with agonist, final concentration 1×10^−5, for 15 min in stimulation buffer (HBSS supplemented with 1% BSA, 5 mM HEPES and 1 mM IBMX, pH 7.4) The medium was then aspirated and to end the reaction 100 μL of 95% EtOH was added to each well of a 24-well plate and cells were kept in −20° C. over night. The EtOH was let to evaporate and 500 μL of lysis buffer (1% BSA, 5 mM HEPES and 0.3% Tween-20, pH 7.4) was added to each well before put in −80° C. for 30 min and then kept in −20° C. Intracellular cAMP levels were detected using an alpha screen cAMP kit (6760635D from Perkin Elmer). The activity for each compound is compared to that of isoproterenol.

Structure (SMILES)	Biological example 1: glucose uptake, activity compared to that of isoproterenol (L6-myotubes [1])	Biological example 2: intracellular cAMP levels, activity compared to that of isoproterenol (L6-myotubes [2])
CC12CC(C1)[C@H]([C@@H](O)c1cncc(F)c1)N2 [Example 15, (S)-(5-Fluoropyridin-3-yl)((R)-1-methyl-2-azabicyclo[2.1.1]hexan-3-yl)-methanol]	− (less than 25%)	− (less than 25%)
CC12CC(C1)[C@@H]([C@@H](O)c1cccc(Cl)c1)N2.Cl [Example 6, (S)-(3-Chlorophenyl)((S)-1-methyl-2-azabicyclo[2.1.1]hexan-3-yl)methanol hydrochloride]	+ (between 50 and 25%)	− (less than 25%)
CC12CC(C1)[C@H]([C@@H](O)c1cccc(F)c1)N2.Cl [Example 3, (S)-(3-Fluorophenyl)((R)-1-methyl-2-azabicyclo[2.1.1]hexan-3-yl)methanol hydrochloride]	+ (between 50 and 25%)	− (less than 25%)
CC12CC(C1)[C@H]([C@@H](O)c1cccc(Cl)c1)N2.Cl [Example 7, (S)-(3-Chlorophenyl)((R)-1-methyl-2-azabicyclo[2.1.1]hexan-3-yl)methanol hydrochloride]	++ (between 75 and 50%)	− (less than 25%)
CC12CC(C1)[C@H]([C@H](O)c1cncc(F)c1)N2 [Example 13, (R)-(5-Fluoropyridin-3-yl)((R)-1-methyl-2-azabicyclo[2.1.1]hexan-3-yl)-methanol]	+++ (activity of more than 75% of that of isoproterenol)	− (less than 25%)
CC12CC(C1)[C@H]([C@H](O)c1ccccc1F)N2.Cl [Example 9, (R)-(2-Fluorophenyl)((R)-1-methyl-2-azabicyclo[2.1.1]hexan-3-yl)methanol hydrochloride]	+++ (activity of more than 75% of that of isoproterenol)	+++ (activity of more than 75% of that of isoproterenol)
CC12CC(C1)[C@H]([C@@H](O)c1cccc(N)c1F)N2.Cl [Example 19, (S)-(3-Amino-2-fluorophenyl)((R)-1-methyl-2-azabicyclo[2.1.1]hexan-3-yl)methanol hydrochloride]	++ (between 75 and 50%)	− (less than 25%)
CC12CC(C1)[C@@H]([C@H](O)c1ccccc1F)N2.Cl [Example 12, (R)-(2-Fluorophenyl)((S)-1-methyl-2-azabicyclo[2.1.1]hexan-3-yl)methanol hydrochloride]	+++ (activity of more than 75% of that of isoproterenol)	− (less than 25%)
CC12CC(C1)[C@@H]([C@@H](O)c1cccc(F)c1)N2.Cl [Example 2, (S)-(3-Fluorophenyl)((S)-1-methyl-2-azabicyclo[2.1.1]hexan-3-yl)methanol hydrochloride]	++ (between 75 and 50%)	− (less than 25%)
CC12CC(C1)[C@@H]([C@H](O)c1cncc(F)c1)N2 [Example 16, (R)-(5-Fluoropyridin-3-yl)((S)-1-methyl-2-azabicyclo[2.1.1]hexan-3-yl)-methanol]	+ (between 50 and 25%)	− (less than 25%)
CC12CC(C1)[C@@H]([C@H](O)c1cccc(Cl)c1)N2.Cl [Example 8, (R)-(3-Chlorophenyl)((S)-1-methyl-2-azabicyclo[2.1.1]hexan-3-yl)methanol hydrochloride]	+ (between 50 and 25%)	− (less than 25%)
CC12CC(C1)[C@H]([C@H](O)c1cccc(N)c1F)N2.Cl [Example 17, (R)-(3-Amino-2-fluorophenyl)((R)-1-methyl-2-azabicyclo[2.1.1]hexan-3-yl)methanol hydrochloride]	+++ (activity of more than 75% of that of isoproterenol)	− (less than 25%)
CC12CC(C1)[C@@H]([C@H](O)c1cccc(N)c1F)N2.Cl [Example 20, (R)-(3-Amino-2-fluorophenyl)((S)-1-methyl-2-azabicyclo[2.1.1]hexan-3-yl)methanol hydrochloride]	++ (between 75 and 50%)	− (less than 25%)
CC12CC(C1)[C@@H]([C@@H](O)c1cccc(N)c1F)N2.Cl [Example 18, (S)-(3-Amino-2-fluorophenyl)((S)-1-methyl-2-azabicyclo[2.1.1]hexan-3-yl)methanol hydrochloride]	++ (between 75 and 50%)	− (less than 25%)
CC12CC(C1)[C@@H]([C@H](O)c1cccc(F)c1)N2.Cl [Example 4, (R)-(3-Fluorophenyl)((S)-1-methyl-2-azabicyclo[2.1.1]hexan-3-yl)methanol hydrochloride]	− (less than 25%)	− (less than 25%)
CC12CC(C1)[C@@H]([C@@H](O)c1cncc(F)c1)N2 [Example 14, (S)-(5-Fluoropyridin-3-yl)((S)-1-methyl-2-azabicyclo[2.1.1]hexan-3-yl)-methanol]	++ (between 75 and 50%)	− (less than 25%)
CC12CC(C1)[C@@H]([C@@H](O)c1ccccc1F)N2.Cl [Example 10, (S)-(2-Fluorophenyl)((S)-1-methyl-2-azabicyclo[2.1.1]hexan-3-yl)methanol hydrochloride]	+++ (activity of more than 75% of that of isoproterenol)	− (less than 25%)
CC12CC(C1)[C@H]([C@H](O)c1cccc(Cl)c1)N2.Cl [Example 5, (R)-(3-Chlorophenyl)((R)-1-methyl-2-azabicyclo[2.1.1]hexan-3-yl)methanol hydrochloride]	+++ (activity of more than 75% of that of isoproterenol)	− (less than 25%)
CC12CC(C1)[C@H]([C@H](O)c1cccc(F)c1)N2.Cl [Example 1, (R)-(3-Fluorophenyl)((R)-1-methyl-2-azabicyclo[2.1.1]hexan-3-yl)methanol hydrochloride]	+++ (activity of more than 75% of that of isoproterenol)	++ (between 75 and 50%)
